The test has as its target T1, N-terminal HiBiT tagged BCL6 (Homo sapiens, UniProt P41182).
T1 construct: expressed in transfected cells; host or cells: HT1080 (ATCC CCL-121), stably transduced with lentivirus pLV-UBC-N-HiBiT-BCL6-PGK-puro
Kind of test: HiBiT based degradation assay. Type of test: cell-based. The note with it: HT1080 cells expressing N-terminal HiBiT tagged BCL6, 5 hours of incubation; for Ymin (5 hr): BCL6 degradation normalized with DMSO control; for DC50: four-parameter logistic model, read-out: EC50 (5 hr). From the text: Human BCL6 protein coding open reading frame fused with N-terminal HiBiT coding sequence was synthesized from Integrated DNA Technologies (IDT). Next, the N-HiBiT-BCL6 sequence was cloned into pLV-UBC-PGK-Puro, a lentivirus plasmid purchased from Vectorbuilder, to generate pLV-UBC-N-HiBiT-BCL6-PGK-puro. Lentiviral particles were generated from Lenti-X™ 293T cells (Clontech) by co-transfection of pLV-UBC-N-HiBiT-BCL6-PGK-puro plasmids and lentiviral packaging plasmid mix (Cellecta). HT1080 [HT1080] (ATCC CCL-121) cells were infected with the lentivirus, and HT1080 cells stably integrated with the lentiviral vectors were established by incubation with 1 μg/mL puromycin (Thermofisher).
HT1080 cells expressing N-terminal HiBiT tagged BCL6 were dispensed into a 384-well plate pre-spotted with compounds at varying concentrations. Five thousand cells were seeded into each well in 40 μL of RPMI 1640 media plus 10% Fetal Bovine Serum (10082-147, Thermofisher). After 5 hours of incubation at 37° C. with 5% CO2, 30 μL of the NANO-GLOR HiBiT Lytic Detection System working solution (Promega) was added to each well and incubated at room temperature for 15 min. After incubation, luminescence was read on a PHERAstar FSX Plate Reader (BMG). BCL6 degradation at each indicated concentration was normalized with DMSO control. The BCL6 degradation curves were plotted using a four-parameter logistic model.
In general terms: HiBiT is a short tag that completes a luciferase, so light tracks the accessible tagged protein.

The results in this text go back to patent US20260241012A1, “1,8-NAPHTHYRIDIN-2-ONE HETEROBIFUNCTIONAL BCL6 DEGRADERS” (Treeline Biosciences, Inc., priority 2022, published 2026).

For `CNC(=O)COc1cc2cc(Nc3nc(N4CC5(CC[C@H](Nc6ccc7c(C8CCC(=O)NC8=O)nn(C)c7c6)[C@H](C)C5)C4)ncc3Cl)cnc2n(C)c1=O` (relative stereo) [Compound 156b, 2-((6-((5-chloro-2-((6R,7S)-7-((3-(2,6-dioxopiperidin-3-yl)-1-methyl-1H-indazol-6-yl)amino)-6-methyl-2-azaspiro[3.5]nonan-2-yl)pyrimidin-4-yl)amino)-1-methyl-2-oxo-1,2-dihydro-1,8-naphthyridin-3-yl)oxy)-N-methylacetamide], the “Ymin (5 hr)” value is listed as “++++ (Ymin < 30%)” and the DC50 is under 10 nM.
As to `CNC(=O)COc1cc2cc(Nc3nc(N4CC5(CC[C@@H](Nc6ccc7c(C8CCC(=O)NC8=O)nn(C)c7c6)[C@H](C)C5)C4)ncc3Cl)cnc2n(C)c1=O` (relative stereo) [Compound 156d, 2-((6-((5-chloro-2-((6R,7R)-7-((3-(2,6-dioxopiperidin-3-yl)-1-methyl-1H-indazol-6-yl)amino)-6-methyl-2-azaspiro[3.5]nonan-2-yl)pyrimidin-4-yl)amino)-1-methyl-2-oxo-1,2-dihydro-1,8-naphthyridin-3-yl)oxy)-N-methylacetamide], the “Ymin (5 hr)” value was “++++ (Ymin < 30%)” and the DC50 is under 10 nM.
As for `CNC(=O)COc1cc2cc(Nc3nc(N4CC5(CC[C@H](Nc6cccc7c(C8CCC(=O)NC8=O)nn(C)c67)[C@H](C)C5)C4)ncc3Cl)cnc2n(C)c1=O` (relative stereo) [Compound 159a, 2-((6-((5-chloro-2-((6R,7S)-7-((3-(2,6-dioxopiperidin-3-yl)-1-methyl-1H-indazol-7-yl)amino)-6-methyl-2-azaspiro[3.5]nonan-2-yl)pyrimidin-4-yl)amino)-1-methyl-2-oxo-1,2-dihydro-1,8-naphthyridin-3-yl)oxy)-N-methylacetamide], the “Ymin (5 hr)” value is listed as “+++ (30% ≤ Ymin < 50%)” and the DC50 was under 10 nM.
With `CNC(=O)COc1cc2cc(Nc3nc(N4CC5(CC[C@@H](Nc6cccc7c(C8CCC(=O)NC8=O)nn(C)c67)[C@@H](C)C5)C4)ncc3Cl)cnc2n(C)c1=O` (relative stereo) [Compound 159b, 2-((6-((5-chloro-2-((6S,7R)-7-((3-(2,6-dioxopiperidin-3-yl)-1-methyl-1H-indazol-7-yl)amino)-6-methyl-2-azaspiro[3.5]nonan-2-yl)pyrimidin-4-yl)amino)-1-methyl-2-oxo-1,2-dihydro-1,8-naphthyridin-3-yl)oxy)-N-methylacetamide], the “Ymin (5 hr)” value is on record as “+++ (30% ≤ Ymin < 50%)” and the DC50 is under 10 nM.
For the molecule `CNC(=O)COc1cc2cc(Nc3nc(N4CC5(CC[C@@H](Nc6ccc7c(C8CCC(=O)NC8=O)nn(C)c7c6)[C@@H](C)C5)C4)ncc3Cl)cnc2n(C(C)C)c1=O` (relative stereo) [Compound 180a, rel-2-((6-((5-chloro-2-((6S,7R)-7-((3-(2,6-dioxopiperidin-3-yl)-1-methyl-1H-indazol-6-yl)amino)-6-methyl-2-azaspiro[3.5]nonan-2-yl)pyrimidin-4-yl)amino)-1-isopropyl-2-oxo-1,2-dihydro-1,8-naphthyridin-3-yl)oxy)-N-methylacetamide], the “Ymin (5 hr)” value was “+++ (30% ≤ Ymin < 50%)” and the DC50 was in the range of 10 to 100 nM.
Regarding `CNC(=O)COc1cc2cc(Nc3nc(N4CC5(CC[C@H](Nc6ccc7c(C8CCC(=O)NC8=O)nn(C)c7c6)[C@H](C)C5)C4)ncc3Cl)cnc2n(C(C)C)c1=O` (relative stereo) [Compound 180b, rel-2-((6-((5-chloro-2-((6R,7S)-7-((3-(2,6-dioxopiperidin-3-yl)-1-methyl-1H-indazol-6-yl)amino)-6-methyl-2-azaspiro[3.5]nonan-2-yl)pyrimidin-4-yl)amino)-1-isopropyl-2-oxo-1,2-dihydro-1,8-naphthyridin-3-yl)oxy)-N-methylacetamide], the “Ymin (5 hr)” value is “+++ (30% ≤ Ymin < 50%)” and the DC50 was under 10 nM.
In the case of `CNC(=O)COc1cc2cc(Nc3nc(N4CC5(CC[C@H](Nc6ccc7c(C8CCC(=O)NC8=O)nn(C)c7c6)[C@@H](C)C5)C4)ncc3Cl)cnc2n(C(C)C)c1=O` (relative stereo) [Compound 180c, rel-2-((6-((5-chloro-2-((6S,7S)-7-((3-(2,6-dioxopiperidin-3-yl)-1-methyl-1H-indazol-6-yl)amino)-6-methyl-2-azaspiro[3.5]nonan-2-yl)pyrimidin-4-yl)amino)-1-isopropyl-2-oxo-1,2-dihydro-1,8-naphthyridin-3-yl)oxy)-N-methylacetamide], the “Ymin (5 hr)” value is “++++ (Ymin < 30%)” and the DC50 is under 10 nM.
`CNC(=O)COc1cc2cc(Nc3nc(N4CC5(CC[C@@H](Nc6ccc7c(C8CCC(=O)NC8=O)nn(C)c7c6)[C@H](C)C5)C4)ncc3Cl)cnc2n(C(C)C)c1=O` (relative stereo) [Compound 180d, rel-2-((6-((5-chloro-2-((6R,7R)-7-((3-(2,6-dioxopiperidin-3-yl)-1-methyl-1H-indazol-6-yl)amino)-6-methyl-2-azaspiro[3.5]nonan-2-yl)pyrimidin-4-yl)amino)-1-isopropyl-2-oxo-1,2-dihydro-1,8-naphthyridin-3-yl)oxy)-N-methylacetamide]: the “Ymin (5 hr)” value is reported as “++++ (Ymin < 30%)” and the DC50 is under 10 nM.
For `CNC(=O)COc1cc2cc(Nc3nc(N4CC5(CC[C@@H](Oc6ccc7c(C8CCC(=O)NC8=O)nn(C)c7c6)[C@@H](C)C5)C4)ncc3Cl)cnc2n(C(C)C)c1=O` (relative stereo) [Compound 185b, 2-[[6-[[5-chloro-2-[(6S,7R)-7-[3-(2,6-dioxo-3-piperidyl)-1-methyl-indazol-6-yl]oxy-6-methyl-2-azaspiro[3.5]nonan-2-yl]pyrimidin-4-yl]amino]-1-isopropyl-2-oxo-1,8-naphthyridin-3-yl]oxy]-N-methyl-acetamide], in that order: “++++ (Ymin < 30%)” and under 10 nM.
Take `CNC(=O)COc1cc2cc(Nc3nc(N4CC5(CC[C@H](Oc6ccc7c(C8CCC(=O)NC8=O)nn(C)c7c6)[C@@H](C)C5)C4)ncc3Cl)cnc2n(C(C)C)c1=O` (relative stereo) [Compound 185c, 2-[[6-[[5-chloro-2-[(6S,7S)-7-[3-(2,6-dioxo-3-piperidyl)-1-methyl-indazol-6-yl]oxy-6-methyl-2-azaspiro[3.5]nonan-2-yl]pyrimidin-4-yl]amino]-1-isopropyl-2-oxo-1,8-naphthyridin-3-yl]oxy]-N-methyl-acetamide]: the “Ymin (5 hr)” value is on record as “++++ (Ymin < 30%)” and the DC50 was under 10 nM.
The matching figures for `CNC(=O)COc1cc2cc(Nc3nc(N4CC5(CC[C@@H](Oc6ccc7c(C8CCC(=O)NC8=O)nn(C)c7c6)[C@H](C)C5)C4)ncc3Cl)cnc2n(C(C)C)c1=O` (relative stereo) [Compound 185d, 2-[[6-[[5-chloro-2-[(6R,7R)-7-[3-(2,6-dioxo-3-piperidyl)-1-methyl-indazol-6-yl]oxy-6-methyl-2-azaspiro[3.5]nonan-2-yl]pyrimidin-4-yl]amino]-1-isopropyl-2-oxo-1,8-naphthyridin-3-yl]oxy]-N-methyl-acetamide]: “++++ (Ymin < 30%)” and under 10 nM.
Regarding `CNC(=O)COc1cc2cc(Nc3nc(N4CC5(CC[C@@H](Nc6ccc7c(C8CCC(=O)NC8=O)nn(C)c7c6)[C@@H](C(F)(F)F)C5)C4)ncc3Cl)cnc2n(C(C)C)c1=O` (relative stereo) [Compound 221a, 2-((6-((5-chloro-2-((6S,7R)-7-((3-(2,6-dioxopiperidin-3-yl)-1-methyl-1H-indazol-6-yl)amino)-6-(trifluoromethyl)-2-azaspiro[3.5]nonan-2-yl)pyrimidin-4-yl)amino)-1-isopropyl-2-oxo-1,2-dihydro-1,8-naphthyridin-3-yl)oxy)-N-methylacetamide], the “Ymin (5 hr)” value was “++++ (Ymin < 30%)” and the DC50 is under 10 nM.
As for `CNC(=O)COc1cc2cc(Nc3nc(N4CC5(CC[C@H](Nc6ccc7c(C8CCC(=O)NC8=O)nn(C)c7c6)[C@@H](C(F)(F)F)C5)C4)ncc3Cl)cnc2n(C(C)C)c1=O` (relative stereo) [Compound 221b, rel-2-((6-((5-chloro-2-((6S,7S)-7-((3-(2,6-dioxopiperidin-3-yl)-1-methyl-1H-indazol-6-yl)amino)-6-(trifluoromethyl)-2-azaspiro[3.5]nonan-2-yl)pyrimidin-4-yl)amino)-1-isopropyl-2-oxo-1,2-dihydro-1,8-naphthyridin-3-yl)oxy)-N-methylacetamide], the “Ymin (5 hr)” value is given as “++++ (Ymin < 30%)” and the DC50 was under 10 nM.
With `CNC(=O)COc1cc2cc(Nc3nc(N4CC[C@@H](CN5CCN(c6cccc7c(C8CCC(=O)NC8=O)nn(C)c67)CC5)[C@H](F)C4)ncc3Cl)cnc2n(C(C)C)c1=O` (relative stereo) [Compound 238a, 2-((6-((5-chloro-2-((3S,4S)-4-((4-(3-(2,6-dioxopiperidin-3-yl)-1-methyl-1H-indazol-7-yl)piperazin-1-yl)methyl)-3-fluoropiperidin-1-yl)pyrimidin-4-yl)amino)-1-isopropyl-2-oxo-1,2-dihydro-1,8-naphthyridin-3-yl)oxy)-N-methylacetamide], the “Ymin (5 hr)” value is on record as “++++ (Ymin < 30%)” and the DC50 lay in the range of 10 to 100 nM.
